{
  "source": "paper PMC6906431",
  "about": "“Selective small molecule PARG inhibitor causes replication fork stalling and cancer cell death” (Nature Communications, 2019)",
  "format_in_all_cases": "cell-based, human",
  "key": {"[1]": {"tested_on": "PARPi resistant SUM149PT cells", "assay": "PAR and gH2AX high-content imaging in PARPi-resistant cells", "settings": "10 µM JA2131 2 h; 3Gy IR", "description": "PARG inhibitors as potential therapeutic option for PARP1 inhibitor resistant cancers.\nAs PARP1 inhibitors are now widely used in the clinic but frequently resistance is emerging, we evaluated if PARG may be a therapeutic option for patients who become PARP1 inhibitor resistant. We therefore generated PARP1 inhibitor resistant SUM149PT triple negative breast cancer cell-lines through with 100 nM talazoparib for 5 constitutive days and then with 15-50 nM talazoparib until resistant cells grew into clones. The resulting resistant cell clones were propagated and expanded to generate PARP inhibitor resistant SUM149PT derivative cells that no longer responded to PARP1i treatment. We then investigated whether the PARP resistant breast cancer cells would response to the PARG inhibitors. Four PARPi resistant SUM149PT cell clones together with wild type cells were treated with JA2131. PAR accumulation and gH2AX foci formation were analyzed by high content imaging (Fig. S6). Treatment of cells with […]\nimmu n o fluorescence signals. The PAR accumulation and gH2AX foci formation was very similar […]\nPARP1 resistant patients.\nSupplementary Fig. 17: PARPi resistant cells respond to JA2131 PARGi. (a) PARGi sensitizes PARP1i resistant breast cancer cells. […]"}, "HeLa cells": {"tested_on": "HeLa cells", "assay": "DNA fiber assay, replication fork progression", "settings": "JA2131 10 µM", "excerpt": "Normalized % viabilities are plotted against log concentration. Error bars show the percent coefficient of variation. […] Mann-Whitney test was used to generate the p-value. The DNA spread assay is the representation of two independently repeated experiments. Source Data are provided as a Source Data file."}, "MDA-MB-231 cells": {"tested_on": "MDA-MB-231 cells", "assay": "Clonogenic survival assay", "settings": "for colony count (clonogenic survival, raw replicate data, Supplementary Figure 8): MDA-MB-231", "description": "(§1) Fig. 6 Selective inhibition of PARG by xanthine derivative JA2131. a Clonogenic survival assays of PC3, MDA-MB-231, and MCF-7 cells treated with PARGi. Cells were treated with either DMSO or 10 µM JA2131 for 2 h, irradiated with 3 Gy (MDA-MB-231 and MCF-7), 7 Gy (PC3) IR and grown for ~2 weeks, then colonies were fixed with methanol and stained with crystal violet. The results of three independent experiments are shown. Error bars = the standard error of the mean (SEM). b dose-response of JA2131 in MDA-MB-231 cells with and without IR. Cells were treated with designated concentrations of JA2131 for 2 h and then either left untreated or exposed to 3 Gy IR and allowed to recover for 1 h before lysis. Total protein was immunoblotted with anti-PAR antibody (upper panel), stripped and reprobed with anti-PCNA as a loading control. c MDA-MB-231 cells with stable scrambled shRNA (WT) or stable PARG shRNA, knockdown (KD), were treated with 5 μM JA2131 for 2 h, lysed and then total lysates were immunoblotted for anti-PAR (upper panel) followed by anti-PARG (upper middle panel), anti-PARP1 (lower middle panel) and anti-actin (bottom panel) antibody. […] Stable cells with scramble shRNA (control) and shPARG (PARG-KD) cells were treated with an increasing concentration of JA2131 for growth inhibitory IC50 determination. The data was normalized against 100% survival at the lowest inhibitor concentration. Error bars show the percent coefficient of variation. Equivalent concentrations of DMSO were used as a negative control. e The cytotoxicity of JA2131 along with PDD, Veliparib and Doxorubicin against MRC-5 cells. Error bars show the percent coefficient of variation. f CETSA for in-cell JA2131 target engagement. Normalized anti-PARG western blot intensities of three independent experiments were fitted as above and the estimated aggregation temperature (Tagg) is shown in the tabulated insert. Source Data are provided as a Source Data file.\n(§2) PC3, MDA-MB-231 cells were maintained in RPMI 1640, MCF-7 cells in Eagle’s Minimum Essential Medium (EMEM), MRC-5 cells in Eagle’s Minimum Essential Medium and Hela and U2OS cells in Dulbecco’s modified Eagle’s high glucose medium (DMEM) supplemented with 10% (vol/vol) fetal bovine serum (FBS) and 1% antibiotic/antimycotic (Lonza) in a humidified incubator with 10% CO2. All cell lines were purchased from ATCC and regularly checked for mycoplasma and cell authentication. SUM 149PT cells were cultured in F-12 Hams (Gibco) supplemented with 5% fetal bovine serum, insulin, and hydrocortisone. Colony formation assays were carried out in 6-well plates, 500 cells were used per well and following designated treatment, and colonies were grown for 2 weeks. Cells were fixed with methanol (100%), stained with crystal violet and analyzed using a GelCount instrument (Oxford Optronix Ltd). Crystal Violet C6158 was purchased from Sigma. PARG knockdown cells were generated by infecting MDA-MB-231 cells with shPARG lentiviral particles (sc-106355-V, Santa Cruz Biotechnology), which contain a pool of three shRNA plasmids. After 24 h infection, 3 µg/ml puromycin (Invitrogen) was added and antibiotic-resistant cells were further expanded and used for experimentation. Sequence-1; hairpin sequence: […], sense: […]tt, Antisense: […]tt. Sequence-2; hairpin sequence, […]-[…], sense: […]tt, antisense: […]tt. Sequence-3; hairpin sequence: […]-[…], sense: […]tt, antisense: […]-GGUUUCCtt. Control cells were generated using the same process except that scramble lentiviral particles with scrambled sequences were used (sc-108080).\n(§3) Supplementary Fig. 8: Clonogenic survival of cells in the presence of PARGi and PARPi (a)\n(§4) Clonogenic survival of PC3 cells in response to indicated compounds. ( b) Clonogenic survival of\n(§5) MDA-MB-231 cells in response to i ndicated compounds. (c) Clonogenic survival of MCF -7 cells\n(§6) in response to indicated compounds. […]"}, "PC3 cells": {"tested_on": "PC3 cells", "assay": "Clonogenic survival assay", "settings": "for surviving colonies, Replicates: two weeks", "description": "as §1, §2, §3, §4, §5, §6"}, "[2]": {"settings": "10 µM JA2131 2 h, 7 Gy IR, ~2 weeks"}},
  "note": "Several values for one entry are separate records, joined by “and”; a condition that tells them apart may be missing. Identical values can stand only once.",
  "data": [
    {"molecule": "Cn1c(=S)c2[nH]c(SCCN3CCOCC3)nc2n(C)c1=O", "note": "[JA2131]", "values": [
      {"measurement": "PAR accumulation and gH2AX staining", "setting": "[1]", "result": "increased PAR accumulation as well as gH2AX staining"},
      {"measurement": "average IdU tract", "setting": "HeLa cells; 2 h pretreatment, no genotoxic stress", "result": 6.0, "unit": "μm"},
      {"measurement": "average IdU tract length", "setting": "HeLa cells; low-dose hydroxyurea", "result": 5.0, "unit": "μm"},
      {"measurement": "Surviving Fraction", "setting": "MDA-MB-231 cells; 10 µM JA2131 2 h, 3 Gy IR, ~2 weeks", "result": "0.4526 and 0.3681 and 0.2687 and 0.3631"},
      {"measurement": "colony count (clonogenic survival, raw replicate data, Supplementary Figure 8)", "setting": "MDA-MB-231 cells; Experiment-1, replicates 1-6", "result": "76 (2×) and 74 and 77 and 70 and 85"},
      {"measurement": "colony count (clonogenic survival, raw replicate data, Supplementary Figure 8)", "setting": "MDA-MB-231 cells; Experiment-2, replicates 1-6", "result": "61 (3×) and 68 and 76 and 65"},
      {"measurement": "colony count (clonogenic survival, raw replicate data, Supplementary Figure 8)", "setting": "MDA-MB-231 cells; Experiment-3, replicates 1-6", "result": "34 and 25 and 20 and 47 and 33 and 35"},
      {"measurement": "Surviving Fraction", "setting": "PC3 cells; [2]", "result": "0.7713 and 0.7545 and 0.8277 and 0.7845"},
      {"measurement": "clonogenic survival (Exp-1 to Exp-4)", "setting": "PC3 cells; [2]", "result": "77.1344 and 75.4495 and 82.7709 and 78.4516"},
      {"measurement": "surviving colonies, Replicates", "setting": "PC3 cells; JA2131 0.5 uM", "result": "47 and 58 and 49 and 56 and 83 and 61"},
      {"measurement": "surviving colonies, Replicates", "setting": "PC3 cells; JA2131 1 uM", "result": "9 and 48 and 34 and 20 and 62 and 2"},
      {"measurement": "surviving colonies, Replicates", "setting": "PC3 cells; JA2131 5 uM", "result": "1 and 29 and 2 (2×) and 24 and 0"},
      {"measurement": "surviving colonies, Replicates", "setting": "PC3 cells; JA2131 10 uM", "result": "2 and 15 and 14 and 0 and 21 and 5"}
    ]}
  ]
}
